Laboratory results from patent publication US20010021710A1, “NOVEL CIS-3,4-CHROMAN DERIVATIVES USEFUL IN THE PREVENTION OR TREATMENT OF ESTROGEN RELATED DISEASES OR SYNDROMES” (priority 1996, published 2001).

SMILES | melting point
Oc1ccc2c(c1)OC[C@@H](c1ccc(F)cc1)[C@H]2c1ccc(OCCN2CCCC2)cc1 (racemic) [Example 7, (±)-cis-7-Hydroxy-3-(4-fluorophenyl)-4-(4-(2-pyrrolidinoethoxy)phenyl)chromane] | 164 to 167 °C
Oc1ccc2c(c1)OC[C@@H](c1ccc(F)cc1)[C@H]2c1ccc(OCCN2CCCCC2)cc1 (racemic) [Example 8, (±)-cis-7-Hydroxy-3-(4-fluorophenyl)-4-(4-(2-piperidinoethoxy)phenyl)-chromane] | 146 to 147 °C
Oc1ccc2c(c1)OC[C@@H](c1ccc(F)cc1)[C@H]2c1ccc(OCCCN2CCCCC2)cc1 (racemic) [Example 9, (±)-cis-7-Hydroxy-3-(4-fluorophenyl)-4-(4-(3-piperidinopropoxy)phenyl)chromane] | 78 to 84 °C
Cc1ccc([C@@H]2COc3cc(O)ccc3[C@@H]2c2ccc(OCCN3CCCC3)cc2)cc1 (racemic) [Example 12, (±)-cis-7-Hydroxy-3-(4-methylphenyl)-4-(4-(2-pyrrolidinoethoxy)phenyl)chromane] | 161 to 165 °C
Cc1cccc([C@@H]2COc3cc(O)ccc3[C@@H]2c2ccc(OCCN3CCCC3)cc2)c1 (racemic) [Example 16, (±)-cis-7-Hydroxy-3-(3-methylphenyl)-4-(4-(2-pyrrolidinoethoxy)phenyl)chromane] | 85 to 90 °C
Oc1cccc([C@@H]2COc3cc(O)ccc3[C@@H]2c2ccc(OCCN3CCCCC3)cc2)c1 (racemic) [Example 19, (±)-cis-7-Hydroxy-3-(3-hydroxyphenyl)-4-(4-(2-piperidinoethoxy)phenyl)chromane] | 144 °C (dec.)
Oc1ccc2c(c1)OC[C@@H](c1cccc(C(F)(F)F)c1)[C@H]2c1ccc(OCCN2CCCC2)cc1 (racemic) [Example 21, (±)-cis-7-Hydroxy-4-(4-(2-pyrrolidinoethoxy)phenyl)-3-(3-(trifluoromethyl)phenyl)-chromane] | 87 to 89 °C
Oc1ccc2c(c1)OC[C@@H](c1c(F)c(F)c(F)c(F)c1F)[C@H]2c1ccc(OCCN2CCCC2)cc1 (racemic) [Example 24, (±)-cis-7-Hydroxy-3-(2,3,4,5,6-pentafluorophenyl)-4-(4-(2-pyrrolidinoethoxy)phenyl)chromane] | 125 °C (dec.)
Oc1ccc2c(c1)OC[C@@H](c1c(F)c(F)c(F)c(F)c1F)[C@H]2c1ccc(OCCN2CCCCC2)cc1 (racemic) [Example 25, (±)-cis-7-Hydroxy-3-(2,3,4,5,6-pentafluorophenyl)-4-(4-(2-piperidinoethoxy)phenyl)chromane] | 174 °C (dec.)
Oc1ccc2c(c1)OC[C@@H](c1ccc(C(F)(F)F)cc1)[C@H]2c1ccc(OCCN2CCCC2)cc1 [Example 1, (+)-cis-7-Hydroxy-4-(4-(2-pyrrolidinoethoxy)phenyl)-3-(4-(trifluoromethyl)phenyl)-chromane] | 100 °C (dec.)

Further lines, results first:

melting point | SMILES
112 to 116 °C | Oc1ccc([C@@H]2COc3cc(O)ccc3[C@@H]2c2ccc(OCCN3CCCC3)cc2)cc1 (racemic) [Example 10, (±)-cis-7-Hydroxy-3-(4-hydroxyphenyl)-4-(4-(2-pyrrolidinoethoxy)phenyl)chromane]
146 to 147.5 °C | Cc1ccc([C@@H]2COc3cc(O)ccc3[C@@H]2c2ccc(OCCN3CCCCC3)cc2)cc1 (racemic) [Example 13, (±)-cis-7-Hydroxy-3-(4-methylphenyl)-4-(4-(2-piperidinoethoxy)phenyl)chromane]
146 to 150 °C | Oc1ccc2c(c1)OC[C@@H](c1cccc(F)c1)[C@H]2c1ccc(OCCN2CCCC2)cc1 (racemic) [Example 17, (±)-cis-3-(3-Fluorophenyl)-7-hydroxy-4-(4-(2-pyrrolidinoethoxy)phenyl)chromane]
118 to 119 °C | Oc1ccc2c(c1)OC[C@@H](c1cccc(C(F)(F)F)c1)[C@H]2c1ccc(OCCN2CCCCC2)cc1 (racemic) [Example 22, (±)-cis-7-Hydroxy-4-(4-(2-piperidinoethoxy)phenyl)-3-(3-(trifluoromethyl)phenyl)-chromane]
190 °C (dec.) | Oc1ccc2c(c1)OC[C@@H](c1ccccc1F)[C@H]2c1ccc(OCCN2CCCC2)cc1 (racemic) [Example 23, (±)-cis-3-(2-Fluorophenyl)-7-hydroxy-4-(4-(2-pyrrolidinoethoxy)phenyl)chromane]
